Experimental data as given in patent US7741280B2, “Multimeric molecules, the preparation method thereof and use of same for the preparation of medicaments” (Centre National de la Recherche Scientifique, priority 2002, dated 2010).
Where two headings read alike, the source gives them in different places. Where a SMILES comes first, the peptide text is derived from it. Bridges are numbered along the chain shown (N, C = ends). Roman numbers before positions name the chains, in order. Where no end group is shown, it is not given here. Side-chain parts run from the residue outwards. [ ]: non-standard residue; d: D form. Ahx = NCCCCCC(=O)O

What was measured:
[1] = target: T1, human CD40 muIg fusion protein (UniProt P01863+P25942); experiment: Biacore3000 surface plasmon resonance study of the CD40/CD40L interaction and the ligands; format: binding
T1 construct: purchased ANCELL Corporation, Bayport, Minn
T1 sequence (P25942+P01863 fused): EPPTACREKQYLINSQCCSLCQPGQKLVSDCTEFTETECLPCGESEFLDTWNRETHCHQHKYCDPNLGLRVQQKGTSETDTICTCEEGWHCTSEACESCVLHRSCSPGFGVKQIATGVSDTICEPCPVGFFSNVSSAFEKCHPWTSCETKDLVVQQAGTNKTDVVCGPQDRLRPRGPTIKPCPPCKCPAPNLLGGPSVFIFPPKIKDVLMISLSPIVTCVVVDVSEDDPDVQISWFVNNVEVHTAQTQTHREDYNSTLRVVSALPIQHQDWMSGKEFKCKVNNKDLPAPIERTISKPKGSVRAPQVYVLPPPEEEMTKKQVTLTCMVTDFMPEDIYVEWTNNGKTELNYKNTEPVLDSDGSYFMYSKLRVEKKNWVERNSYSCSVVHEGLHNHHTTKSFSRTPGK
Description: The Biacore3000 is a device which allows the interactions between two molecules to be studied, based on the surface plasmon resonance. It allows measurement in real time, and therefore allows the kinetics of interaction (association and disassociation) of an analyte (which is in an injected solution) and of a ligand (immobilised on a microchip supporting the measurement) to be monitored. The kinetic measurements at different concentrations of analyte allow calculation of the affinity constants of the interaction between the ligand and the analytes. The microchip contains four cells for different measurements, which allows direct comparison of a reference cell on which a protein which is not pertinent (protein which has no affinity with the ligand studied), but close to the ligand is immobilised with the cell on which the ligand is immobilised.
Rabbit antibodies directed against the constant region of mouse immunoglobulins were immobilized on a microchip. In the reference cell a monoclonal mouse antibody of isotype IgG2a (LG112) at 40 nM is immobilized with a flow of 5 μL/min for 2 minutes; in the cell of the ligand the recombinant CD40 associated with the constant region of the mouse IgG2a heavy chain (human CD40 muIg fusion protein, ANCELL Corporation, Bayport, Minn.) is immobilized under the same conditions.
On the two cells (reference and ligand), the CD40L (human CD154 muCD8 fusion protein, ANCELL Corporation) at different concentrations or the CD40L at a concentration of 1 μM or of 125 nM, are injected, as analyte, in the presence of different concentrations of ligands. The flow in the presence of the analytes is 10 μL/min for 5 minutes to study the association and, in the absence of analytes, the conditions are the same to study the dissociation.
In order to regenerate the cells (i.e. remove all the proteins adsorbed in a non-covalent manner), a solution of 10 mM of HCl is injected at 5 μL/min for 1 minute. The cells are then ready for another analysis.

[2] = tested on: BL41 Burkitt's lymphoma cells; experiment: Inhibition of proliferation of BL41 cells (incorporation of tritiated thymidine); format: cell-based; settings: 24 hours culture, FIG. 4A, 50 μM to 50 nM
Experimental: Tritiated thymidine was added at a concentration of 1 μci/well (0.8.10^5 cells/well) for the last 8 hours of culture and the incorporation of tritiated thymidine measured using a gaseous scintillation β counter.
The second test is based on the property of certain B lymphomas to cease proliferation and enter apoptosis during the bridging of their membranous CD40 molecule (Tong et al., 1999). In this test, the BL41 cells are incubated with ligands CD40 and after 24 hours either the inhibition of proliferation of these cells is measured, by studying the incorporation of tritiated thymidine, or the percentage of apoptotic cells is measured with a flow cytometry study (FIGS. 4A and 4B).
Certain B lymphomas enter apoptosis when their CD40 molecule is bridged by an anti-CD40 antibody or by CD40L which is soluble independently from the CD95 molecule. This induction of apoptosis is expressed as a decrease in proliferation measured by the incorporation of tritiated thymidine. The agonist ligands of CD40 will induce an increase in apoptosis and as a result a decrease in the incorporation of tritiated thymidine.
The BL41 Burkitt's lymphoma cells (4.10^5/mL) are cultured in the presence of the different ligands at the chosen concentration. After 24 hours, the cells are either incubated for 8 hours with tritiated thymidine (1 μci/well) to measure the proliferation or are labelled with Annexin V-FITC and propidium iodide to evaluate the percentage of apoptotic cells with flow cytometry.

[3] = target: T2, CD40-CD40L interaction (Homo sapiens, UniProt P25942); experiment: Expression of CD95 induced by CD40L on BL41 cells cultured with 3T6-CD40L fibroblasts (flow cytometry); format: cell-based; settings: for % of inhibition of the expression of CD95 induced by CD40L: BL41 + 3T6-CD40L, 48 hours
T2 construct: they receive a signal via the CD40 molecule, which they express in a constitutive manner; endogenous in cells; host or cells: BL41 Burkitt's lymphoma cells (endogenous CD40), co-cultured with 3T6 fibroblasts transfected with CD40L
T2 sequence (P25942 21-277): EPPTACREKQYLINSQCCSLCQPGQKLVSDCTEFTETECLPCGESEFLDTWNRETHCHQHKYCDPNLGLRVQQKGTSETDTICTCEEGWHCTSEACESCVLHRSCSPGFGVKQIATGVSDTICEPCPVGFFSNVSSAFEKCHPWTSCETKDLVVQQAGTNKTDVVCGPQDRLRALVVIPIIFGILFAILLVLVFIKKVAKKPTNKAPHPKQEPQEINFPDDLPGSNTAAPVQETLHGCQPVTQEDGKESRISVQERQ
Experimental: Then, the affinity of these ligands for the CD40 molecule is evaluated using a biosensor (BIAcore™). The agonist or antagonist effect of the ligands was tested using two simple biological tests. In the first, the expression of the membranous molecule CD95 by transformed B cells (Burkitt's lymphoma) is studied after activation by the CD40-CD40L interaction (Schattner et al., 1996). In such a model, the CD40L partner is expressed on transfected fibroblasts (3T6-CD40L) (Buelens et al., 1997). The BL41 Burkitt's lymphoma cells are incubated with non-transfected 3T6 fibroblasts (FIGS. 3A and 3C) or with 3T6 fibroblasts transfected by CD40L (FIGS. 3B and 3D). After 48 hours, the expression of CD95 is evaluated by flow cytometry. The expression of CD95 is induced in the presence of CD40L (FIG. 3B). A commercial anti-CD40L antibody inhibits the consequences of the CD40-CD40L interaction (FIG. 3D).
The antagonist effect is evaluated by measurement of the decrease in the expression of CD95 induced by the CD40L in the presence of the different chemical ligands (see Table I). With the help of these tests, the most interesting ligands are chosen to evaluate their activity in vivo and in vitro in more complex models.
The lymphoma B cells express the CD95 molecule when they receive a signal via the CD40 molecule, which they express in a constitutive manner. This signal is generally conveyed by the CD40L (CD154) molecule expressed by another cell. The antagonist ligands inhibit the binding of CD40 on CD40L and thus […] the expression of CD95. The agonist ligands copy the CD40L molecule and induce the expression of CD95 even in the absence of the cell expressing CD40L.
The BL41 Burkitt's lymphoma cells (5.10^5/ml) are cultured in the presence of 3T6 fibroblasts (10^5/ml) transfected (3T6-CD40L) or not transfected with CD40L (3T6), and treated with mitomycin to stop their proliferation. The ligands are added at the start of the culture at the chosen concentration. After culture for 48 hours, expression of the CD95 molecule is measured by flow cytometry. The BL41 cells are distinguished from the fibroblasts using an anti-CD19 antibody (specific marker of the B cells).

[4] = target: CD40 molecule expressed constitutively by BL41 Burkitt's lymphoma cells (UniProt P25942); experiment: cell-based or functional assay
Sequence of CD40 molecule expressed constitutively by BL41 Burkitt's lymphoma cells (P25942 21-277 limits assumed): as the sequence (P25942 21-277) above

NCCCC[C@H](N)C(=O)NCC(=O)N[C@@H](Cc1ccc(O)cc1)C(=O)N[C@@H](Cc1ccc(O)cc1)C(=O)NCCCCCC(=O)NCCCC[C@H]1CC(=O)N[C@@H](CCCCNC(=O)CCCCCNC(=O)[C@H](Cc2ccc(O)cc2)NC(=O)[C@H](Cc2ccc(O)cc2)NC(=O)CNC(=O)[C@@H](N)CCCCN)CC(=O)N[C@@H](CCCCNC(=O)CCCCCNC(=O)[C@H](Cc2ccc(O)cc2)NC(=O)[C@H](Cc2ccc(O)cc2)NC(=O)CNC(=O)[C@@H](N)CCCCN)CC(=O)N1 [L9]
IC50 ([1]; in the presence of 100 nM of CD40L, read-out: inhibition of 50% of the binding of CD40L (IC50)): < 0.05 µM | equilibrium constant compared with L4 ([1]; inferred from IC50, same conditions as L4): less than that of L4

L7-3: L7 analogue: replacement of the aminohexanoic acid spacer arm by a glycine (KGYYG; not fully specified (C-terminus); also: L7 analogue: aminohexanoic acid spacer replaced by glycine, core as L7)
inhibition of the proliferation of BL41 cells (in words) [2]: only have a small or no effect

L7-2: L7 analogue with the reverse sequence H-Tyr-Tyr-Gly-Lys- (YYGK)
inhibition of the proliferation of BL41 cells (in words) [2]: only have a small or no effect

C[C@H](NC(=O)[C@H](CCCCNC(=O)[C@H](CCCCNC(=O)[C@H](CCCCNC(=O)[C@H](CCCCNC(=O)[C@H](CCCNC(=N)N)NC(=O)[C@@H]1CCCN1C[C@@H](N)CCCCN)NC(=O)[C@H](CCCNC(=N)N)NC(=O)[C@@H]1CCCN1C[C@@H](N)CCCCN)NC(=O)[C@H](CCCNC(=N)N)NC(=O)[C@@H]1CCCN1C[C@@H](N)CCCCN)NC(=O)[C@H](CCCNC(=N)N)NC(=O)[C@@H]1CCCN1C[C@@H](N)CCCCN)NC(=O)[C@H](CCCNC(=N)N)NC(=O)[C@@H]1CCCN1C[C@@H](N)CCCCN)C(=O)O [L1]
% of inhibition of the expression of CD95 induced by CD40L ([3]; ligand 25 μM): 0% | % of inhibition of the expression of CD95 induced by CD40L ([3]; ligand 50 μM): 43% | % of inhibition of the expression of CD95 induced by CD40L ([3]; ligand 100 μM): 60% | Kd ([1]; analyte CD40L at 1 μM and L1 at 50 μM, read-out: equilibrium constant): > 50 µM

CC(=O)NCCCC[C@H](NC(C)=O)C(=O)NCCCCC(NC(C)=O)C(=O)NCCCC[C@H](NC(C)=O)C(=O)NCCCC[C@H](NC(C)=O)C(=O)N[C@@H](C)C(=O)O (stereo partly shown) [L2]
effect on the expression of CD95 induced by CD40L (in words) ([3]; BL41 cells in the presence of 3T6-CD40L cells, no concentration stated): no effect | % of inhibition of the expression of CD95 induced by CD40L ([3]; ligand 25 μM): 0% | % of inhibition of the expression of CD95 induced by CD40L ([3]; ligand 50 μM): 0% | % of inhibition of the expression of CD95 induced by CD40L ([3]; ligand 100 μM): 0%

C[C@H](NC(=O)[C@H](CCCCNC(=O)[C@H](CCCCNC(=O)[C@H](CCCCNC(=O)[C@H](CCCCNC(=O)[C@H](Cc1ccc(O)cc1)NC(=O)[C@H](Cc1ccc(O)cc1)NC(=O)CNC(=O)[C@@H](N)CCCCN)NC(=O)[C@H](Cc1ccc(O)cc1)NC(=O)[C@H](Cc1ccc(O)cc1)NC(=O)CNC(=O)[C@@H](N)CCCCN)NC(=O)[C@H](Cc1ccc(O)cc1)NC(=O)[C@H](Cc1ccc(O)cc1)NC(=O)CNC(=O)[C@@H](N)CCCCN)NC(=O)[C@H](Cc1ccc(O)cc1)NC(=O)[C@H](Cc1ccc(O)cc1)NC(=O)CNC(=O)[C@@H](N)CCCCN)NC(=O)[C@H](Cc1ccc(O)cc1)NC(=O)[C@H](Cc1ccc(O)cc1)NC(=O)CNC(=O)[C@@H](N)CCCCN)C(=O)O [L3] (I: H-KGYYKA-OH / II: H-KGYYK([Tyr-Tyr-Gly-Lys]) / III: H-KGYYK / IV: H-KGYYK; amide I:5-IV:C, II:C-III:5, III:C-IV:5)
% of inhibition of the expression of CD95 induced by CD40L ([3]; ligand 5 μM): 0% | % of inhibition of the expression of CD95 induced by CD40L ([3]; ligand 10 μM): 13% | % of inhibition of the expression of CD95 induced by CD40L ([3]; ligand 25 μM): 25% | % of inhibition of the expression of CD95 induced by CD40L ([3]; ligand 50 μM): 62% | % of inhibition of the expression of CD95 induced by CD40L ([3]; ligand 100 μM): 60%

L12: from linear 8-B core coupled with pentapeptide 1-A; linear version of L9 (chain Lys-Lys-Lys; peptide KGYY; not fully specified (some residues, C-terminus); also: peptide (pentapeptide 1-A) coupled to linear core 8-B, linkage and core structure not given here)
binding to CD40 and displacement of CD40L (in words) ([1]; in the presence of 100 nM of CD40L): Only the L4 and L9 molecules bind to CD40

B1: Compound L4a (ligand L4a): same core molecule as L4 with only 2 examples of the peptide sequence (peptide)
chain: [dA]K[dA]K[dA]K
peptide: H-KGYY[Ahx]
modifications: also: two copies of chain 2 linked via Ahx to epsilon-amines of two core Lys, which Lys not given here, further groups not given here, head-to-tail to a chain's N/C-terminus
% of inhibition of the expression of CD95 induced by CD40L, ligand at 0.5 µM [4]: 0% | % of inhibition of the expression of CD95 induced by CD40L, ligand at 5 µM [4]: 8% | % of inhibition of the expression of CD95 induced by CD40L, ligand at 50 µM [4]: 13%

B2: Compound L2 (ligand L2), core structure of the ligands L1 and L3 (peptide)
chain: KKKKA
modifications: also: four Lys joined through epsilon-amines (isopeptide bonds), free amine groups acetylated
% of inhibition of the expression of CD95 induced by CD40L, ligand at 25 µM [4]: 0% | % of inhibition of the expression of CD95 induced by CD40L, ligand at 50 µM [4]: 0% | % of inhibition of the expression of CD95 induced by CD40L, ligand at 100 µM [4]: 0%

B3: CD40L: human CD154 muCD8 fusion protein, ANCELL Corporation (protein)
chain: KPQAPELRIFPKKMDAELGQKVDLVCEVLGSVSQGCSWLFQNSSSKLPQPTFVVYMASSHNKITWDEKLNSSKLFSAMRDTNNKYVLTLNKFSKENEGYYFCSVISNSVMYFSSVVPVLQKVNSTTTKPVLRTPSPVHPTGTSQPQRPEDCRPRGSVKGTGLDFACDIYHRRLDKIEDERNLHEDFVFMKTIQRCNTGERSLSLLNCEEIKSQFEGFVKDIMLNKEETKKENSFEMQKGDQNPQIAAHVISEASSKTTSVLQWAEKGYYTMSNNLVTLENGKQLTVKRQGLYYIYAQVTFCSNREASSQAPFIASLCLKSPGRFERILLRAANTHSSAKPCGQQSIHLGGVFELQPGASVFVNVTDPSQVSHGTGFTSFGLLKL
Kd ([1]; 4 concentrations of CD40L from 62.5 to 500 nM, read-out: equilibrium constant of CD40L for CD40): 0.054 µM
